The source of these data is US9145415B2, “Nitrogen-containing heterocyclic compound or salt thereof” (FUJIFILM Corporation, priority 2012, dated 2015).

In one experiment the test system is Molm-13 cells. Briefly: Leukemia cell proliferation inhibition test (ATPlite), Molm-13. The format is cell-based. The settings on record: Homo sapiens, read-out: MOLM13 cell proliferation inhibition effect. In short, it runs like this:
(§1)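 72 h proliferation, 37° C/5% CO2; 10,000 cells/well, RPMI/10% FBS; ATPlite luminescence (RLU); 0.1% DMSO taken as 0% inhibition; GI50 via sigmoid fit, n=2.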
On the technique in general: ATP-based viability assays read luminescence as a measure of living cells.

In the next experiment the test system is MV4-11 cells. Briefly: Leukemia cell proliferation inhibition test (ATPlite), MV4-11. The experiment is classed as cell-based. Conditions: Homo sapiens, read-out: MV4-11 cell proliferation inhibition effect. Put shortly:
as §1

The target of experiment [1] is T1, human FLT3 protein (FLT3 (WT)) (Homo sapiens, UniProt P36888).
T1 construct: human FLT3 protein (intracellular region, 564 to 993 aa); GST; purchased Carna Biosciences; host or cells: baculovirus expression system
T1 sequence (P36888 564-993): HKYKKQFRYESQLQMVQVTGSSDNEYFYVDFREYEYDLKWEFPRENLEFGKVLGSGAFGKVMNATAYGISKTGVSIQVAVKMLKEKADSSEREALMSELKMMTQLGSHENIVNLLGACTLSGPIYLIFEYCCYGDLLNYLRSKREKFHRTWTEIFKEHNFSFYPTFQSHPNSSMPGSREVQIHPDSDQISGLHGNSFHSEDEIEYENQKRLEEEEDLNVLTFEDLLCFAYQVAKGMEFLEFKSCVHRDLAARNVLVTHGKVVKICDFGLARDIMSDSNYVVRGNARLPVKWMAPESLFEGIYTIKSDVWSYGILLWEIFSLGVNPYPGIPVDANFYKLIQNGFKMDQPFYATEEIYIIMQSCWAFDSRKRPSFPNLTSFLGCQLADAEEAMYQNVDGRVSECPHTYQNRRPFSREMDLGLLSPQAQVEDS
Briefly: FLT3 inhibition test (FLT3 enzyme inhibition, time-resolved fluorescence of substrate peptide phosphorylation). The format is biochemical. Conditions: read-out: FLT3 (WT) enzyme inhibition activity. In short, it runs like this: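 Wild-type human FLT3 (1.2 μg) pre-incubated with compound 15 min at 25° C in 100 mM HEPES pH 7.5, 10 mM MgCl2, 25 mM NaCl, 1 mM DTT. Reaction started with substrate peptide and ATP (final 50 μM), run 30 min at 25° C; phosphorylation read by time-resolved fluorescence.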

Where [2] appears, read: MOLM-13, 72 h, Molm-13, 72 hours culture, ATPlite, GI50 per method.
The mark [3] stands for this setting: MV4-11, 72 h, MV4-11, 72 hours culture, ATPlite, GI50 per method.
Where [4] appears, read: GST-fused human FLT3 (564 to 993 aa), ATP 50 μM.

Each structure is given as a SMILES string. Read-outs that look alike come from different tables or passages of the source. A value given as a limit tells only on which side of the number the result lay.

Turning to `COCCCNc1nc(Nc2ccnc(OC)c2)ncc1C#CCCCNC(=O)[C@H](C)N(C)C(=O)/C=C/CN(C)C` [Compound 9-31], the IC50 (with Molm-13 cells (setting [2]); with MV4-11 cells (setting [3]); in experiment [1] (setting [4])) was below 10 nM in each case.
Regarding `CCCNc1nc(Nc2ccc(C#N)cc2)ncc1C#CCNC(=O)CCCNC(=O)/C=C/CN(C)C` [Compound 7-91], the results for the IC50 (in the experiment on Molm-13 cells (setting [2]); in the experiment on MV4-11 cells (setting [3]); in experiment [1] (setting [4])) were 100 to 1000 nM, 100 to 1000 nM and below 10 nM, respectively.
Turning to `CCCNc1nc(Nc2ccc(C(N)=O)cc2)ncc1C(=O)Nc1cccc(NC(=O)[C@H](C)N(C)C(=O)/C=C/CNC(C)(C)C)c1` [Compound 4-4], the IC50 (in the experiment with Molm-13 cells (setting [2]); in the experiment on MV4-11 cells (setting [3]); in experiment [1] (setting [4])) was below 10 nM each time.
For the molecule `CNc1nc(Nc2cccc(F)c2)ncc1C#CCCCNC(=O)[C@@H]1C[C@H](F)CN1C(=O)/C=C/CN(C)C` [Compound 7-72, (2S,4S)-1-((E)-4-(Dimethylamino)-2-butenoyl)-4-fluoro-N-(5-(2-((3-fluorophenyl)amino)-4-(methylamino)pyrimidin-5-yl)-4-pentyn-1-yl)pyrrolidine-2-carboxamide], the IC50 (with Molm-13 cells (setting [2]); in the experiment on MV4-11 cells (setting [3]); in experiment [1] (setting [4])) was below 10 nM throughout.
`C=CC(=O)NCC(=O)NC(CC)CCNC(=O)c1cnc(NCCc2ccncc2)nc1NCCC` (stereo not drawn) [Compound 1-6]: the IC50 is 10 to 100 nM with Molm-13 cells (setting [2]), 10 to 100 nM with MV4-11 cells (setting [3]) and below 10 nM in experiment [1] (setting [4]).
In the case of `CCCNc1nc(Nc2ccc3c(OC)nn(C)c3c2)ncc1C#CCCCNC(=O)[C@@H]1CCCN1C(=O)/C=C/CN(C)C` [Compound 22-42], the IC50 in the experiment on Molm-13 cells (MOLM-13, MOLM13 cell) is below 10 nM; in the experiment on MV4-11 cells (MV4-11, MV4-11 cell) it was below 10 nM; in experiment [1] (FLT3 (WT)) it was below 10 nM.
Turning to `COc1ccc(Nc2nc(Nc3cccc(F)c3)ncc2C#CCCCNC(=O)[C@H](C)N(C)C(=O)/C=C/CN(C)C)cc1` [Compound 10-3, (S,E)-4-(Dimethylamino)-N-(1-((5-(2-((3-fluorophenyl)amino)-4-((4-methoxyphenyl)amino)pyrimidin-5-yl)-4-pentyn-1-yl)amino)-1-oxopropan-2-yl)-N-methyl-2-butenamide], the IC50 (with Molm-13 cells (setting [2]); in the experiment on MV4-11 cells (setting [3]); in experiment [1] (setting [4])) was below 10 nM throughout.
For `CC(C)Oc1nc(Nc2ccc(C#N)cc2)ncc1C#C[C@@H]1CCC[C@H](NC(=O)[C@H](C)N(C)C(=O)/C=C/CN(C)C)C1` [Compound 21-22], the IC50 (in the experiment with Molm-13 cells (setting [2]); in the experiment on MV4-11 cells (setting [3]); in experiment [1] (setting [4])) was below 10 nM throughout.
On to `C=CC(=O)NC(C)(C)C(=O)NCCCNC(=O)c1cnc(Nc2ccc3cnccc3c2)nc1NCCC` [Compound 6-7], for which the IC50 is 10 to 100 nM with Molm-13 cells (setting [2]), 10 to 100 nM in the experiment with MV4-11 cells (setting [3]) and below 10 nM in experiment [1] (setting [4]).
As for `CNc1nc(Nc2ccc(C#N)cc2)ncc1C#CCCCNC(=O)[C@@H]1C[C@H](F)CN1C(=O)/C=C/CN(C)C` [Compound 7-87, (2S,4S)—N-(5-(2-((4-Cyanophenyl)amino)-4-(methylamino)pyrimidin-5-yl)-4-pentyn-1-yl)-1-((E)-4-(dimethylamino)-2-butenoyl)-4-fluoropyrrolidine-2-carboxamide], the IC50 (with Molm-13 cells (setting [2]); in the experiment with MV4-11 cells (setting [3]); in experiment [1] (setting [4])) was below 10 nM throughout.
Turning to `CCCNc1nc(Nc2cccc(C(F)(F)F)c2)ncc1C#CCCCNC(=O)[C@H](C)N(C)C(=O)/C=C/CN(C)C` [Compound 11-11], the IC50 was 10 to 100 nM with Molm-13 cells (setting [2]), 10 to 100 nM in the experiment on MV4-11 cells (setting [3]) and below 10 nM in experiment [1] (setting [4]).
Regarding `C=CC(=O)Nc1cccc(NC(=O)c2cnc(NCCc3ccncc3)nc2NCCC)c1` [Compound 2-25], the IC50 was 100 to 1000 nM with Molm-13 cells (setting [2]), 100 to 1000 nM with MV4-11 cells (setting [3]) and 10 to 100 nM in experiment [1] (setting [4]).
For `CCCNc1nc(Nc2cnc3c(cnn3CCOC)c2)ncc1C#CCCCNC(=O)[C@H](C)N(C)C(=O)/C=C/CN(C)C` [Compound 22-40], the IC50 was below 10 nM with Molm-13 cells (MOLM-13, MOLM13 cell); below 10 nM in the experiment on MV4-11 cells (MV4-11, MV4-11 cell); below 10 nM in experiment [1] (FLT3 (WT)).
On to `CCCNc1nc(Nc2ccc3cn[nH]c3c2)ncc1C#CCCCNC(=O)[C@@H]1CCCN1C(=O)/C=C/CN(C)C` [Compound 22-63], for which the IC50 in the experiment on Molm-13 cells (MOLM-13, MOLM13 cell) was below 10 nM; in the experiment with MV4-11 cells (MV4-11, MV4-11 cell), below 10 nM; in experiment [1] (FLT3 (WT)), below 10 nM.
Regarding `C[C@@H](C(=O)NCCCC#Cc1cnc(Nc2cccc(F)c2)nc1NCCCN(C)C)N(C)C(=O)/C=C/CN(C)C` [Compound 10-4], the IC50 (with Molm-13 cells (setting [2]); in the experiment with MV4-11 cells (setting [3]); in experiment [1] (setting [4])) was below 10 nM in each case.
On to `C=CC(=O)NCC(=O)Nc1ccccc1CNC(=O)c1cnc(NCCc2ccncc2)nc1NCCC` [Compound 2-29], for which the values for the IC50 (in the experiment with Molm-13 cells (setting [2]); in the experiment with MV4-11 cells (setting [3]); in experiment [1] (setting [4])) were 100 to 1000 nM, 100 to 1000 nM and 10 to 100 nM, respectively.
Consider `CCCNc1nc(Nc2ccc(C(N)=O)cc2)ncc1C(=O)Nc1cccc(NC(=O)[C@H](C)N(C)C(=O)/C=C/CBr)c1` [Compound 3-7, (S,E)-N-(3-(2-(4-bromo-N-methyl-2-butenamido)propanamido)phenyl)-2-((4-carbamoylphenyl)amino)-4-(propylamino)pyrimidine-5-carboxamide], for which the IC50 with Molm-13 cells (setting [2]) is 10 to 100 nM; with MV4-11 cells (setting [3]), 10 to 100 nM; in experiment [1] (setting [4]), below 10 nM.
As to `COCCCNc1nc(Nc2ccc3c(cnn3C)c2)ncc1C#CCCCNC(=O)[C@H](C)N(C)C(=O)/C=C/CN(C)C` [Compound 10-55], the IC50 (in the experiment on Molm-13 cells (setting [2]); with MV4-11 cells (setting [3]); in experiment [1] (setting [4])) was below 10 nM each time.
Regarding `CCCNc1nc(Nc2ccc(F)cc2)ncc1C#CCCCNC(=O)[C@H](C)N(C)C(=O)/C=C/CN(C)C` [Compound 12-3], the IC50 (in the experiment on Molm-13 cells (setting [2]); with MV4-11 cells (setting [3]); in experiment [1] (setting [4])) was below 10 nM in each case.
As to `C[C@@H](C(=O)NCCCC#Cc1cnc(Nc2ccc(C#N)cc2)nc1-n1cccn1)N(C)C(=O)/C=C/CN(C)C` [Compound 20-2, (S,E)-N-(1-((5-(2-((4-cyanophenyl)amino)-4-(1H-pyrazol-1-yl)pyrimidin-5-yl)-4-pentyn-1-yl)amino)-1-oxopropan-2-yl)-4-(dimethylamino)-N-methyl-2-butenamide], the IC50 (in the experiment on Molm-13 cells (setting [2]); with MV4-11 cells (setting [3]); in experiment [1] (setting [4])) was 10 to 100 nM each time.
With `CCCNc1nc(Nc2ccc(C(N)=O)cc2)ncc1C#CCCCNC1(CNC(=O)/C=C/CN(C)C)CCOCC1` [Compound 8-12], the IC50 in the experiment with Molm-13 cells (setting [2]) is 10 to 100 nM; in the experiment with MV4-11 cells (setting [3]), 10 to 100 nM; in experiment [1] (setting [4]) it was below 10 nM.
Take `C=CC(=O)N(C)CC(=O)NCCCNC(=O)c1cnc(Nc2ccc3cnccc3c2)nc1NCCC` [Compound 6-6]: the IC50 (with Molm-13 cells (setting [2]); with MV4-11 cells (setting [3]); in experiment [1] (setting [4])) was below 10 nM throughout.
Consider `CCCNc1nc(Nc2ccc(C#N)cc2)ncc1C#CCNC(=O)CCNC(=O)/C=C/CN(C)C` [Compound 7-90], for which the IC50 with Molm-13 cells (setting [2]) is 100 to 1000 nM; in the experiment on MV4-11 cells (setting [3]), 100 to 1000 nM; in experiment [1] (setting [4]) it was below 10 nM.
As for `C[C@@H](C(=O)NCCCC#Cc1cnc(Nc2ccc(C#N)cc2)nc1-n1cncn1)N(C)C(=O)/C=C/CN(C)C` [Compound 20-4], the IC50 in the experiment on Molm-13 cells (setting [2]) is 10 to 100 nM; with MV4-11 cells (setting [3]), 10 to 100 nM; in experiment [1] (setting [4]), below 10 nM.
For the molecule `CCCNc1nc(Nc2ccc(C#N)c(C)c2)ncc1C#CCCCNC(=O)[C@H](C)N(C)C(=O)/C=C/CN(C)C` [Compound 21-3], the IC50 (with Molm-13 cells (setting [2]); in the experiment on MV4-11 cells (setting [3]); in experiment [1] (setting [4])) was below 10 nM throughout.
For the molecule `CCCNc1nc(Nc2ccc3c(OC)n[nH]c3c2)ncc1C#CCCCNC(=O)[C@H](C)N(C)C(=O)/C=C/CN(C)C` [Compound 22-65], the IC50 with Molm-13 cells (MOLM-13, MOLM13 cell) is below 10 nM; in the experiment with MV4-11 cells (MV4-11, MV4-11 cell), below 10 nM; in experiment [1] (FLT3 (WT)) it was below 10 nM.
With `CCCNc1nc(Nc2ccc(F)c(OC)c2)ncc1C#CCCCNC(=O)[C@H](C)N(C)C(=O)/C=C/CN(C)C` [Compound 9-29], the IC50 (in the experiment with Molm-13 cells (setting [2]); in the experiment on MV4-11 cells (setting [3]); in experiment [1] (setting [4])) was below 10 nM in each case.
Consider `CCCNc1nc(Nc2cccc(F)c2)ncc1C#CCCCNC(=O)CN(C)C(=O)/C=C/CN(C)C` [Compound 7-24, (E)-4-(Dimethylamino)-N-(2-((5-(2-((3-fluorophenyl)amino)-4-(propylamino)pyrimidin-5-yl)-4-pentyn-1-yl)amino)-2-oxoethyl)-N-methyl-2-butenamide], for which the IC50 (with Molm-13 cells (setting [2]); with MV4-11 cells (setting [3]); in experiment [1] (setting [4])) was below 10 nM each time.
On to `CCCNc1nc(Nc2cnc(C)c(C)c2)ncc1C#CCCCNC(=O)[C@H](C)N(C)C(=O)/C=C/CN(C)C` [Compound 21-18], for which the IC50 (in the experiment on Molm-13 cells (setting [2]); in the experiment with MV4-11 cells (setting [3]); in experiment [1] (setting [4])) was 10 to 100 nM each time.
